Measurements published in US10882837B2, “Amide compounds and use thereof” (ALPHALA CO., LTD., priority 2017, dated 2021).

Legend:
glucagon receptor (GCGR) = molecular target: T1, glucagon receptor (GCGR) (Homo sapiens, UniProt P47871); assay: Glucagon cAMP inhibition assay (Cisbio cAMP Dynamic 2 HTRF); type: cell-based; settings: GCGR overexpressed CHO-K1 cells or human primary hepatocytes (not specified); glucagon at EC50
T1 construct: expressed in transfected cells; host or cells: CHO-K1
How it was run: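 GCGR-overexpressing CHO-K1 cells or human primary hepatocytes in HBSS with 0.1% BSA and 800 nM IBMX, pre-incubated 30 min with compound (1% DMSO final), then stimulated 30 min at room temperature with glucagon at its EC50. cAMP measured by HTRF after 60 min lysis; IC50 from non-linear regression.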

GCGR = GCGR (Homo sapiens, UniProt P47871); assay: I125-glucagon binding assay (competition, GCGR membrane fractions); parameters: expressed in transfected cells; host or cells: CHO-K1; inhibition: dose or concentration left out as unconfirmed; settings: for IC50: competition with I125-glucagon 0.0625 nM, membrane fractions from GCGR overexpressed CHO-K1 cells; for inhibition at 30 µM: compound at 30 μM
GCGR, sequence (P47871 26-477, species assumed): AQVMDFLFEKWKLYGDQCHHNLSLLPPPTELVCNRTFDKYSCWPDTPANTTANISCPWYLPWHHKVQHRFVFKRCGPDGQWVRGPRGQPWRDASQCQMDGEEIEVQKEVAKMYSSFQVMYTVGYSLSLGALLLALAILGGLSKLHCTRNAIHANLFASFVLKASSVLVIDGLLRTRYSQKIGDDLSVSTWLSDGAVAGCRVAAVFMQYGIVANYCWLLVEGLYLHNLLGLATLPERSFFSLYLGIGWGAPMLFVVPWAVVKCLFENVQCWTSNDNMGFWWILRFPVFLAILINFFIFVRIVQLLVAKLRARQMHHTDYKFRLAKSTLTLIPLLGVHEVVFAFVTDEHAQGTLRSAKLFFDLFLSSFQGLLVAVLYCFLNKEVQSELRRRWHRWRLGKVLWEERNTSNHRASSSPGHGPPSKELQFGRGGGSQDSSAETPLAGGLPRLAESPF
How it was run: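 Membranes from CHO-K1 cells overexpressing GCGR (7.5 µg/well) were preincubated 5 min with serially diluted compound in 50 mM Tris pH 7.4, 0.5% BSA. I125-glucagon was then added at 0.0625 nM final and incubated 30 min at 25 °C. After filtration, bound radioactivity was counted and IC50 derived by non-linear regression.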

[1] = read-out: percentage of inhibition (number in parenthesis in IC50 binding column)

T1 sequence (P47871 26-477, species assumed): as above

| IC50 (glucagon receptor (GCGR)) [µM] | IC50 (GCGR) [µM] | inhibition at 30 µM (GCGR; [1]) [%] | inhibition (GCGR; [1]) [%] | SMILES |
| --- | --- | --- | --- | --- |
| 0.0711 | 0.389 |  |  | CCOC(=O)CCNC(=O)c1ccc(N[C@@H](CC(C)C)c2ccc(-c3noc(-c4ccccc4)n3)cc2)cc1 [Compound 2-41, ethyl (S)-3-(4-((3-methyl-1-(4-(5-phenyl-1,2,4-oxadiazol-3-yl)phenyl)butyl)amino)benzamido)propanoate] |
| 1.57 | 1.18 |  |  | CCCC[C@@H](Nc1ccc(C(=O)NCCC(=O)O)cc1)c1ccc(-c2noc(C(F)(F)F)n2)cc1 [Compound 2-48, (R)-3-(4-((1-(4-(5-(trifluoromethyl)-1,2,4-oxadiazol-3-yl)phenyl)pentyl)amino)benzamido)propanoic acid] |
| 3.33 | 0.211 |  |  | CCCC(Nc1ccc(C(=O)NCCC(=O)O)cc1)c1ccc(-c2nnc(-c3ccccc3)o2)cc1 (stereo not drawn) [Compound 1-7] |
| 0.061 | 0.634 |  |  | CCOC(=O)CCNC(=O)c1ccc(N[C@H](c2ccc(-c3noc(-c4ccccc4)n3)cc2)C(C)C)cc1 [Compound 2-27, ethyl (S)-3-(4-((2-methyl-1-(4-(5-phenyl-1,2,4-oxadiazol-3-yl)phenyl)propyl)amino)benzamido)propanoate] |
| 2.22 | 0.034 |  |  | CC(C)C(Nc1ccc(C(=O)NCCC(=O)O)cc1)c1ccc(-c2nc3ccccc3o2)cc1 (stereo not drawn) [Compound 4-3, 3-(4-((1-(4-(benzo[d]oxazol-2-yl)phenyl)-2-methylpropyl)amino)benzamido)propanoic acid] |
| 0.046 | 0.876 |  |  | CCOC(=O)CCNC(=O)c1ccc(N[C@H](c2ccc(-c3nc(-c4ccccc4)no3)cc2)C(C)CC)cc1 (stereo partly drawn) [Compound 5-5, ethyl 3-(4-(((1S)-2-methyl-1-(4-(3-phenyl-1,2,4-oxadiazol-5-yl)phenyl)butyl)amino)benzamido)propanoate] |
| 0.138 | 1.02 |  |  | CCCC[C@@H](Nc1ccc(C(=O)NCCC(=O)O)cc1)c1ccc(-c2noc(-c3ccccn3)n2)cc1 [Compound 2-40, (R)-3-(4-((1-(4-(5-(pyridin-2-yl)-1,2,4-oxadiazol-3-yl)phenyl)pentyl)amino)benzamido)propanoic acid] |
| 0.934 | 0.07 |  |  | CCCCC(Nc1ccc(C(=O)NCCC(=O)O)cc1)c1ccc(-c2noc(-c3ccccc3)n2)cc1 (stereo not drawn) [Compound 2-8, 3-(4-((1-(4-(5-phenyl-1,2,4-oxadiazol-3-yl)phenyl)pentyl)amino)benzamido)propanoic acid] |
| 0.322 | 3.51 | 53 |  | CCOC(=O)CCNC(=O)c1ccc(NC(c2ccc(-c3nnc(-c4ccc(F)cc4)o3)cc2)C(C)C)cc1 (stereo not drawn) [Compound 1-17] |
| > 30 | 0.651 |  |  | CCCC(Nc1ccc(C(=O)NCCC(=O)O)cc1)c1ccc(-c2nnc(C(F)(F)F)o2)cc1 (stereo not drawn) [Compound 1-8, 3-(4-((1-(4-(5-(Trifluoromethyl)-1,3,4-oxadiazol-2-yl)phenyl)butyl)amino)benzamido)propanoic acid] |
| 0.105 | 1.49 |  | 31 | CCOC(=O)CCNC(=O)c1ccc(NC(CC(C)C)c2ccc(-c3noc(-c4ccccc4)n3)cc2)cc1 (stereo not drawn) [Compound 2-9, ethyl 3-(4-((3-methyl-1-(4-(5-phenyl-1,2,4-oxadiazol-3-yl)phenyl)butyl)amino)benzamido)propanoate] |
| 1.23 | 2.79 |  |  | CCOC(=O)CCNC(=O)c1ccc(C(Nc2ccc(-c3nnc(-c4ccccc4)o3)cc2)C(C)C)cc1 (stereo not drawn) [Compound 3-4] |
| 0.632 | 0.021 |  |  | CC(C)[C@@H](Nc1ccc(-c2nnc(-c3ccccc3)o2)cc1)c1ccc(C(=O)NCCC(=O)O)cc1 [Compound 3-15, (R)-3-(4-(2-methyl-1-(4-(5-phenyl-1,3,4-oxadiazol-2-yl)phenylamino)propyl)benzamido)propanoic acid] |
| 10.3 | 0.246 |  |  | CCC(C)C(Nc1ccc(C(=O)NCCC(=O)O)cc1)c1ccc(-c2nnc(C(C)(C)C)o2)cc1 (stereo not drawn) [Compound 1-22, 3-(4-((1-(4-(5-(tert-butyl)-1,3,4-oxadiazol-2-yl)phenyl)-2-methylbutyl)amino)benzamido)propanoic acid] |
| 0.754 | 0.0238 |  |  | O=C(O)CCNC(=O)c1ccc(N[C@@H](c2ccc(-c3nc4ccccc4o3)cc2)C2CCCC2)cc1 [Compound 4-12, (R)-3-(4-(((4-(benzo[d]oxazol-2-yl)phenyl)(cyclopentyl)methyl)amino)benzamido)propanoic acid] |
| 0.569 | 0.085 |  |  | CCC(C)[C@@H](Nc1ccc(C(=O)NCCC(=O)O)cc1)c1ccc(-c2noc(-c3ccccc3)n2)cc1 (stereo partly drawn) [Compound 2-21, 3-(4-(((1R)-2-methyl-1-(4-(5-phenyl-1,2,4-oxadiazol-3-yl)phenyl)butyl)amino)benzamido)propanoic acid] |
| 0.207 | > 30 |  |  | CCOC(=O)CCNC(=O)c1ccc([C@H](Nc2ccc(-c3nnc(-c4ccccc4)o3)cc2)C(C)C)cc1 [Compound 3-13, (R)-ethyl 3-(4-(2-methyl-1-(4-(5-phenyl-1,3,4-oxadiazol-2-yl)phenylamino)propyl)benzamido)propanoate] |
| 0.037 | 0.226 | 28 |  | CCOC(=O)CCNC(=O)c1ccc(N[C@H](c2ccc(-c3nnc(-c4ccccc4)o3)cc2)C(C)CC)cc1 (stereo partly drawn) [Compound 1-47, ethyl 3-(4-(((1S)-2-methyl-1-(4-(5-phenyl-1,3,4-oxadiazol-2-yl)phenyl)butyl)amino)benzamido)propanoate] |
| > 30 | 0.314 |  |  | CC(C)C(Nc1ccc(C(=O)NCCC(=O)O)cc1)c1ccc(-c2nnc(C(C)(C)C)o2)cc1 (stereo not drawn) [Compound 1-24, 3-(4-((1-(4-(5-(tert-butyl)-1,3,4-oxadiazol-2-yl)phenyl)-2-methylpropyl)amino)benzamido)propanoic acid] |
| 0.292 | 0.177 |  |  | CC(C)C(Oc1ccc(-c2nc3ccccc3o2)cc1)c1ccc(C(=O)NCCC(=O)O)cc1 (stereo not drawn) [Compound 7-2, 3-(4-(1-(4-(Benzo[d]oxazol-2-yl)phenoxy)-2-methylpropyl)benzamido)propanoic acid] |
| 0.338 | 0.217 |  |  | CCOC(=O)CCNC(=O)c1ccc(N[C@@H](c2ccc(-c3noc(-c4ccccc4)n3)cc2)C(C)CC)cc1 (stereo partly drawn) [Compound 2-20, ethyl 3-(4-(((1R)-2-methyl-1-(4-(5-phenyl-1,2,4-oxadiazol-3-yl)phenyl)butyl)amino)benzamido)propanoate] |
| 0.292 | 2.11 |  |  | CCOC(=O)CCNC(=O)c1ccc(C(Oc2ccc(-c3nc4ccccc4s3)cc2)C(C)C)cc1 (stereo not drawn) [Compound 7-3, Ethyl 3-(4-(1-(4-(benzo[d]thiazol-2-yl)phenoxy)-2-methylpropyl)benzamido)propanoate] |
| 0.0303 | 0.188 |  |  | CCOC(=O)CCNC(=O)c1ccc(N[C@H](c2ccc(-c3nc4ccccc4s3)cc2)C(C)C)cc1 [Compound 4-25, ethyl (S)-3-(4-((1-(4-(benzo[d]thiazol-2-yl)phenyl)-2-methylpropyl)amino)benzamido)propanoate] |
| 0.899 | 0.06 |  |  | CCC(C)[C@@H](Nc1ccc(C(=O)NCCC(=O)O)cc1)c1ccc(-c2nc3ccccc3o2)cc1 (stereo partly drawn) [Compound 4-22, 3-(4-(((1R)-1-(4-(benzo[d]oxazol-2-yl)phenyl)-2-methylbutyl)amino)benzamido)propanoic acid] |
